Tested on in the first data set: not given
Details: not given
For `CSC[C@H](C)NC(=O)c1c(Cl)cccc1C(=O)Nc1ccc(Cc2cc(C(F)(F)F)cc(C(F)(F)F)c2)cc1C`, the melting point (in general, the temperature of the solid-liquid transition) lay in the range of 57 to 62 °C.
Compound `Cc1cc(Cc2cc(C(F)(F)F)cc(C(F)(F)F)c2)ccc1NC(=O)c1cccc(Cl)c1C(=O)N[C@@H](C)C[S+](C)[O-]` (stereo partly shown) gave a melting point of 162 to 165 °C.
For `CSC[C@H](C)NC(=O)c1c(Cl)cccc1C(=O)Nc1ccc(Cc2cc(C(F)(F)F)cc(C(F)(F)F)c2)nc1C`, the melting point lay in the range of 73 to 79 °C.
Consider `Cc1cc(Cc2cc(C(F)(F)F)cc(C(F)(F)F)c2)ccc1NC(=O)c1cccc(Cl)c1C(=O)N[C@@H](C)CS(C)(=O)=O`, for which the melting point lay within 155 to 158 °C.
The compound `CSC[C@H](C)NC(=O)c1c(C)cccc1C(=O)Nc1ccc(Cc2cc(C(F)(F)F)cc(C(F)(F)F)c2)cc1C` showed a melting point of 85 to 94 °C.

The next data set concerns organophosphorous- and carbamate-resistant Myzus persicae. The following applies: 100 ppm; 7 days after application; 28° C. greenhouse.
`CSC[C@H](C)NC(=O)c1c(Cl)cccc1C(=O)Nc1ccc(Cc2cc(Br)cc(Br)c2)cc1C` [compound 152] returned an insect mortality of 100%.
In turn, `CSC[C@H](C)NC(=O)c1c(Cl)cccc1C(=O)Nc1ccc(Cc2cc(C(F)(F)F)cc(C(F)(F)F)c2)cc1C` [Compound No. 19] registered an insect mortality of 100%.

These data come from US8110689B2, “Benzanilides with insecticidal activity” (Bayer Cropsciene AG, priority 2006, dated 2012).
